Assay results reported in PubChem BioAssay (NCI).
Several values for one entry are separate records, joined by “and”; a condition that tells them apart may be missing. Identical values can stand only once.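 Method: 48-hour compound exposure of cells in 96-well plates, five concentrations, linear interpolation of endpoints. GI50 = concentration required for 50% inhibition of growth. TGI marks complete inhibition of growth.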

Columns and labels:
Test in all cases: NCI tumour cell line growth inhibition, 48 h
[1] = system: IGROV1 ovarian
[2] = system: CCRF-CEM leukemia
[3] = system: HCT-116 colon
[4] = system: SK-MEL-2 melanoma
[5] = system: K-562 leukemia
[6] = system: U251 CNS
[7] = system: UACC-62 melanoma
[8] = system: NCI/ADR-RES ovarian
[9] = system: SNB-75 CNS
[10] = system: SF-268 CNS

Compound `CCCn1c(C)nc2c1C(=O)c1ccccc1C2=O` has a GI50 [1] of 14.5 µM, a TGI [1] of 42.1 µM and a GI50 [2] of 15.6 µM. For the same compound, the TGI [2] was > 100 µM, the GI50 [3] was 23.7 µM and the TGI [3] was 65.9 µM. The GI50 [4] was 59.4 µM, the TGI [4] was > 100 µM and the GI50 [5] was 9.87 µM. For the same compound, the TGI [5] was > 100 µM, the GI50 [6] was 22.4 µM and the TGI [6] was > 100 µM. The GI50 [7] was 22.1 µM, the TGI [7] was 67.7 µM and the GI50 [8] was 22.9 µM. The TGI [8] was > 100 µM, the GI50 [9] was 55.4 µM and the TGI [9] was > 100 µM. The GI50 [10] was 20.8 µM and the TGI [10] was > 100 µM.

Compound `Nc1ncnc2[nH]ncc12` has a GI50 [1] of 0.744 µM, a TGI [1] of 4.62 µM and a GI50 [2] of 3.57 µM. For the same compound, the TGI [2] was > 100 µM, the GI50 [3] was 0.511 µM and the TGI [3] was 10.5 µM. For the same compound, the GI50 [4] was 0.369 µM, the TGI [4] was 2.91 µM and the GI50 [5] was 0.279 µM. The TGI [5] was > 100 µM, the GI50 [6] was 4.83 µM and the TGI [6] was > 100 µM. For the same compound, the GI50 [7] was 0.512 µM, the TGI [7] was 3.48 µM and the GI50 [8] was 0.388 µM. The TGI [8] was 12.2 µM, the GI50 [9] was 2.1 µM and the TGI [9] was > 100 µM. For the same compound, the GI50 [10] was 4.19 µM and the TGI [10] was > 100 µM.

`COc1ccc(-c2n[nH]nc2-c2cc(OC)c3c(c2OC)OCO3)cc1` was tested, and the GI50 [1] was 0.885 µM, the TGI [1] was > 68 µM and the GI50 [2] was 0.565 µM. The TGI [2] was > 100 µM, the GI50 [3] was 0.424 µM and the TGI [3] was 19.2 µM. It also gave a GI50 [4] of 0.596 µM, a TGI [4] of 11.4 µM and a GI50 [5] of 0.277 µM. For the same compound, the TGI [5] was > 82.4 µM, the GI50 [6] was 0.817 µM and the TGI [6] was 11 µM. It also gave a GI50 [7] of 0.553 µM, a TGI [7] of 14 µM and a GI50 [8] of 0.368 µM. The GI50 [9] was 0.573 µM, the TGI [9] was 3.96 µM and the GI50 [10] was 2.98 µM. It also gave a TGI [10] of 54.3 µM.

Work on `O=C(/C(=C/c1ccccc1)CN1CCCCC1)c1ccccc1` yielded a GI50 [1] of 1.89 µM, a TGI [1] of 6.25 µM and a GI50 [2] of 0.346 µM. For the same compound, the TGI [2] was > 45.3 µM, the GI50 [3] was 0.468 µM and the TGI [3] was 1.44 µM. The GI50 [4] was 1.6 µM, the TGI [4] was 4.01 µM and the GI50 [5] was 0.566 µM. For the same compound, the TGI [5] was > 33.6 µM, the GI50 [6] was 1.35 µM and the TGI [6] was 3.22 µM. It also gave a GI50 [7] of 1.42 µM, a TGI [7] of 4.36 µM and a GI50 [8] of 1.06 µM. The TGI [8] was 4.64 µM, the GI50 [9] was 3.76 µM and the TGI [9] was 17.8 µM. The GI50 [10] was 2.63 µM and the TGI [10] was 15 µM.

With `CCCCNCC(=O)O[C@]1(CC)C(=O)OCc2c1cc1n(c2=O)Cc2cc3ccccc3nc2-1` the TGI [1] was > 39.3 µM, the TGI [2] was 0.723 µM and the TGI [3] was 4.8 µM. The TGI [4] was 8.76 µM, the TGI [5] was > 48.7 µM and the TGI [6] was 4.49 µM. The TGI [7] was 0.925 µM, the TGI [8] was 2.03 µM and the TGI [9] was 3.44 µM. The TGI [10] was > 95.6 µM.

In the case of `O=C(c1ccccc1)C(CN1CCOCC1)c1ccccc1` (centres undefined), the GI50 [1] is reported as 1.75 µM, the TGI [1] is reported as 4.24 µM and the GI50 [2] is reported as 0.283 µM. The TGI [2] was 1.19 µM, the GI50 [3] was 0.609 µM and the TGI [3] was 2.08 µM. It also gave a GI50 [4] of 1.67 µM, a TGI [4] of 3.39 µM and a GI50 [5] of 0.355 µM. It also gave a TGI [5] of 3.38 µM, a GI50 [6] of 1.71 µM and a TGI [6] of 4.09 µM. The GI50 [7] was 1.71 µM, the TGI [7] was 4.21 µM and the GI50 [8] was 2.83 µM. For the same compound, the TGI [8] was 14.1 µM, the GI50 [9] was 2.29 µM and the TGI [9] was 12 µM. It also gave a GI50 [10] of 1.65 µM and a TGI [10] of 3.47 µM.

Compound `CCN=C1C=CC(=C(c2ccc(N)cc2)c2ccc(N(CC)CC)c(C)c2)C=C1` has a GI50 [1] of 0.537 µM, a TGI [1] of 4.01 µM and a GI50 [2] of 0.306 µM. It also gave a TGI [2] of 5.35 µM, a GI50 [3] of 0.239 µM and a TGI [3] of 1.11 µM. The GI50 [4] was 0.303 µM, the TGI [4] was 0.943 µM and the GI50 [5] was 0.259 µM. The TGI [5] was 1.72 µM, the GI50 [6] was 0.124 µM and the TGI [6] was 1.59 µM. It also gave a GI50 [7] of 0.248 µM, a TGI [7] of 0.866 µM and a GI50 [8] of 2.74 µM. For the same compound, the TGI [8] was > 100 µM, the GI50 [9] was 0.204 µM and the TGI [9] was 0.65 µM. For the same compound, the GI50 [10] was 0.407 µM and the TGI [10] was 2.09 µM.

For `O=S(=O)(NCCNC/C=C/c1ccc(Br)cc1)c1cccc2cnccc12`, the GI50 [1] was 6.4 µM and 10.4 µM, the TGI [1] was 23.2 µM and 26.4 µM and the GI50 [2] was 3.45 µM and 13.3 µM. For the same compound, the TGI [2] was 20.6 µM and 34.2 µM, the GI50 [3] was 7.6 µM and 11.2 µM and the TGI [3] was 22 µM and 24 µM. For the same compound, the GI50 [4] was 11.2 µM and 16.8 µM, the TGI [4] was 24.4 µM and 34 µM and the GI50 [5] was 6.63 µM. The TGI [5] was > 36.7 µM and 27.3 µM, the GI50 [6] was 9.55 µM and 13.8 µM and the TGI [6] was 23.9 µM and 26.7 µM. The GI50 [7] was 9.35 µM and 14.5 µM, the TGI [7] was 22.2 µM and 30.2 µM and the GI50 [8] was 12.3 µM and 14.3 µM. The TGI [8] was 28.8 µM and 32.3 µM, the GI50 [9] was 3.14 µM and 1.85 µM and the TGI [9] was 14.7 µM and 13.5 µM. The GI50 [10] was 8.14 µM and 11.1 µM and the TGI [10] was 22.1 µM and 25.7 µM.

`CN1CCN(Cc2ccc(NC(=O)c3cncc(C#Cc4cnc(N)c5ccncc45)c3)cc2C(F)(F)F)CC1` was tested, and the GI50 [1] was 0.331 µM, the TGI [1] was 2.89 µM and the GI50 [2] was 0.554 µM. The TGI [2] was 11.6 µM, the GI50 [3] was 0.442 µM and the TGI [3] was 3.04 µM. It also gave a GI50 [4] of 0.3 µM, a TGI [4] of 1.07 µM and a GI50 [5] of 0.0146 µM. It also gave a TGI [5] of 5.21 µM, a GI50 [6] of 0.782 µM and a TGI [6] of 7.65 µM. For the same compound, the GI50 [7] was 0.227 µM, the TGI [7] was 1.86 µM and the GI50 [8] was 6.74 µM. It also gave a TGI [8] of 16.5 µM, a GI50 [9] of 0.898 µM and a TGI [9] of 5.08 µM. It also gave a GI50 [10] of 0.972 µM and a TGI [10] of 6.89 µM.

`O=C1C=C(Br)c2c(-c3ccccc3)oc3cccc1c23` was tested, and the TGI [1] was > 100 µM, the TGI [2] was > 47.6 µM and the TGI [3] was > 100 µM. For the same compound, the TGI [4] was > 100 µM, the TGI [5] was > 86.8 µM and the TGI [6] was > 100 µM. For the same compound, the TGI [7] was > 100 µM, the TGI [8] was > 100 µM and the TGI [9] was 42.5 µM. For the same compound, the TGI [10] was > 81.6 µM.
